For orientation: EC50 means the concentration needed to bring the measured effect to its halfway point. By Emax is commonly meant the maximal effect, on the per cent scale that the assay sets.

The values that follow come from patent US10239887B2, “Positive allosteric modulators of the muscarinic acetylcholine receptor M4” (Vanderbilt University, priority 2016, dated 2019).

Structures can show the parent of a compound that is named as a salt. Where two headings read alike, the source gives them in different places.

The target in the assay is T1, human mAChR M4 (Homo sapiens, UniProt P08173).
T1 sequence (P08173 1-479): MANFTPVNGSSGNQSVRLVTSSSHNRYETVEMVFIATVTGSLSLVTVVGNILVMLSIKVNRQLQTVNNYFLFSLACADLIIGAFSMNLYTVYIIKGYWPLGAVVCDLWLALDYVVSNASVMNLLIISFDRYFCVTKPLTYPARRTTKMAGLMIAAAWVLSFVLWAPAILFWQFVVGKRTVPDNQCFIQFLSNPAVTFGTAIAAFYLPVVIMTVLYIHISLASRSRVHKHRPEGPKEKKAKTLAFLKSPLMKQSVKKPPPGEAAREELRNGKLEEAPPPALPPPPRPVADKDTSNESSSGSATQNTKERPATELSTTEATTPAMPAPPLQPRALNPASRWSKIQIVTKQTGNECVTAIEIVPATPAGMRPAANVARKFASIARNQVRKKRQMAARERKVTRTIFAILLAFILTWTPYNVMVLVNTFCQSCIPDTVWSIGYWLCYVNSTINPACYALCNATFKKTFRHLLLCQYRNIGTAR
Put plainly: mAChR M4 cell-based functional assay (calcium flux), human M4. The settings on record: for EC50: Human M4 EC50 (nM), calcium flux, PAM activity with EC20 acetylcholine. In general terms: A change in cytosolic calcium serves as a functional read-out for many receptors and channels.

[1] abbreviates: Table 10, % ACh maximum at 30 μM.

On to `Cc1nnc2sc3c(N4CC(C)(N)C4)ncnc3c2c1C` [Compound 98, 1-(3,4-dimethylpyrimido [4′,5′:4,5]thieno[2,3-c]pyridazin-8-yl)-3-methyl-azetidin-3-amine dihydrochloride], for which, where the note is “Table 10”, the EC50 was determined as 2390 nM. Also, the Emax under setting [1] was 50.1%.

With `Cc1nnc2sc3c(N4CC[C@@H](N)C4)ncnc3c2c1C` [Compound 99, (3R)-1-(3,4-dimethylpyrimido [4′,5′:4,5]thieno[2,3-c]pyridazin-8-yl)pyrrolidin-3-amine dihydrochloride], the EC50 (Table 10) is 1040 nM. Under setting [1], the Emax is 54%.

In the case of `Cc1nnc2sc3c(NC(C)c4ccc(C(C)(C)O)cc4)ncnc3c2c1C` (centres unmarked) [Compound 100, 2-[4-[1-[(3,4-dimethylpyrimido [4′,5′:4,5]thieno[2,3-c]pyridazin-8-yl)amino]ethyl]phenyl]propan-2-ol], where the note is “Table 10”, the EC50 turned out to be 7720 nM. Further, the Emax under setting [1] turned out to be 52.2%.

As to `Cc1nnc2sc3c(NC(C)c4ccc(C5(O)CCC5)cc4)ncnc3c2c1C` (centres unmarked) [Compound 101, 1-[4-[1-[(3,4-dimethylpyrimido [4′,5′:4,5]thieno[2,3-c]pyridazin-8-yl)amino]ethyl]phenyl]cyclobutanol], the EC50 (Table 10) came to 839 nM. For the same compound, the Emax under setting [1] amounted to 59.2%.

Regarding `Cc1nnc2sc3c(NCc4cccc(C5(O)CCC5)c4)ncnc3c2c1C` [Compound 102, 1-[3-[[(3,4-dimethylpyrimido [4′,5′:4,5]thieno[2,3-c]pyridazin-8-yl)amino]methyl]phenyl] cyclobutanol], the EC50 (Table 10) turned out to be 135 nM. For the same compound, under setting [1], the Emax was 53.3%.

`Cc1nnc2sc3c(N4CC(O)(C5CC5)C4)ncnc3c2c1C` [Compound 103, 3-cyclopropyl-1-(3,4-dimethylpyrimido [4′,5′:4,5]thieno[2,3-c]pyridazin-8-yl)azetidin-3-ol]: the EC50 (Table 10) stood at 122 nM. The Emax under setting [1] stood at 80.3%.

`Cc1nnc2sc3c(N4CC(C(N)=O)C4)ncnc3c2c1C` [Compound 104, 1-(3,4-dimethylpyrimido [4′,5′:4,5]thieno[2,3-c]pyridazin-8-yl)azetidine-3-carboxamide]: for the setting “Table 10”, the EC50 turned out to be 2100 nM. In addition, the Emax under setting [1] came out at 52.9%.

In the case of `Cc1nnc2sc3c(N4CC5(CNC5)C4)ncnc3c2c1C` [Compound 105, 8-(2,6-diazaspiro[3.3]heptan-2-yl)-3,4-dimethyl-pyrimido [4′,5′:4,5]thieno[2,3-c] pyridazine], the Emax was 55.6%. Moreover, for the setting “Table 10”, the EC50 was 627 nM.

Regarding `Cc1nnc2sc3c(NCc4ccc(C(C)(C)O)nc4)ncnc3c2c1C` [Compound 106, 2-[5-[[(3,4-dimethylpyrimido [4′,5′:4,5]thieno[2,3-c]pyridazin-8-yl)amino]methyl]-2-pyridyl]propan-2-ol], under setting [1], the maximal response (Emax) is 54.1%.

For the compound `Cc1nnc2sc3c(NCc4ccc(C(C)(C)O)cc4F)ncnc3c2c1C` [Compound 107, 2-[4-[[(3,4-dimethylpyrimido [4′,5′:4,5]thieno[2,3-c]pyridazin-8-yl)amino]methyl]-3-fluoro-phenyl]propan-2-ol], the EC50 (Table 10) stood at 207 nM. Moreover, the Emax under setting [1] came to 78.8%.

In the case of `Cc1nnc2sc3c(NCc4ccc(CN5CCOCC5)cc4)ncnc3c2c1C` [Compound 108, 3,4-dimethyl-N-[[4-(morpholinomethyl)phenyl]methyl]pyrimido[4′,5′:4,5] thieno[2,3-c] pyridazin-8-amine hydrochloride], the Emax came to 76.8%. For the same compound, the EC50 (Table 10) came out at 148 nM.

For the compound `Cc1nnc2sc3c(NCc4ccc(-c5ccccn5)cc4)ncnc3c2c1C` [Compound 109, 3,4-dimethyl-N-[[4-(2-pyridyl)phenyl]methyl] pyrimido[4′,5′:4,5]thieno [2,3-c]pyridazin-8-amine hydrochloride], the EC50 (Table 10) came to 748 nM. Besides, the Emax under setting [1] came to 79.2%.

Consider `Cc1nnc2sc3c(NCc4ccc(Oc5ccccn5)cc4)ncnc3c2c1C` [Compound 110, 3,4-dimethyl-N-[[4-(2-pyridyloxy)phenyl]methyl] pyrimido[4′,5′:4,5]thieno [2,3-c]pyridazin-8-amine hydrochloride], for which the EC50 (Table 10) came to 971 nM. In addition, under setting [1], the Emax amounted to 59.3%.

Regarding `Cc1nnc2sc3c(NCc4ccc(N5CCN(C)CC5)cc4)ncnc3c2c1C` [Compound 111, 3,4-dimethyl-N-[[4-(4-methylpiperazin-1-yl)phenyl]methyl] pyrimido[4′,5′:4,5] thieno[2,3-c] pyridazin-8-amine hydrochloride], the EC50 (Table 10) was found to be 126 nM. Also, the Emax under setting [1] worked out at 70.5%.

With `Cc1nnc2sc3c(NCc4ccc(C(C)(C)O)c(F)c4)ncnc3c2c1C` [Compound 112, 2-[4-[[(3,4-dimethylpyrimido [4′,5′:4,5]thieno[2,3-c]pyridazin-8-yl)amino]methyl]-2-fluoro-phenyl]propan-2-ol], where the note is “Table 10”, the EC50 was determined as 255 nM. Under setting [1], the Emax amounted to 74.6%.

Take `Cc1nnc2sc3c(NCc4ccc(C(C)(O)C(F)(F)F)cc4)ncnc3c2c1C` (centres unmarked) [Compound 113, 2-[4-[[(3,4-dimethylpyrimido [4′,5′:4,5]thieno[2,3-c]pyridazin-8-yl)amino]methyl]phenyl]-1,1,1-trifluoro-propan-2-ol]: the Emax under setting [1] came out at 73.8%.

Turning to `Cc1nnc2sc3c(NCc4ccc(C5(O)CCC5)cc4)ncnc3c2c1C` [Compound 114, 1-[4-[[(3,4-dimethylpyrimido [4′,5′:4,5]thieno[2,3-c]pyridazin-8-yl)amino]methyl]phenyl]cyclobutanol], the EC50 (Table 10) stood at 127 nM. In addition, the Emax under setting [1] turned out to be 69.4%.

For `CCC(C)(O)c1ccc(CNc2ncnc3c2sc2nnc(C)c(C)c23)c(F)c1` (centres unmarked) [Compound 115, 2-[4-[[(3,4-dimethylpyrimido [4′,5′:4,5]thieno[2,3-c]pyridazin-8-yl)amino]methyl]-3-fluoro-phenyl]butan-2-ol], the EC50 (Table 10) came to 916 nM. For the same compound, the Emax under setting [1] came to 72.3%.

For `CCC(C)(O)c1ccc(CNc2ncnc3c2sc2nnc(C)c(C)c23)cc1` (centres unmarked) [Compound 116, 2-[4-[[(3,4-dimethylpyrimido [4′,5′:4,5]thieno[2,3-c]pyridazin-8-yl)amino]methyl]phenyl]butan-2-ol], the EC50 (Table 10) was 151 nM. For the same compound, the Emax under setting [1] amounted to 50%.

On to `Cc1nnc2sc3c(NCc4ccc(CN5CCCC5C(C)(C)O)cc4)ncnc3c2c1C` (centres unmarked) [Compound 117, 2-[1-[[4-[[(3,4-dimethylpyrimido [4′,5′:4,5]thieno[2,3-c]pyridazin-8-yl)amino]methyl]phenyl]methyl]pyrrolidin-2-yl]propan-2-ol], for which the EC50 (Table 10) turned out to be 49.1 nM. For the same compound, under setting [1], the Emax came to 108%.

On to `Cc1nnc2sc3c(NCc4ccc(N5CCNCC5)cc4)ncnc3c2c1C` [Compound 118, 3,4-dimethyl-N-[(4-piperazin-1-ylphenyl)methyl]pyrimido [4′,5′:4,5]thieno[2,3-c] pyridazin-8-amine], for which the EC50 (Table 10) stood at 69 nM. Moreover, under setting [1], the Emax was 101%.

Turning to `Cc1nnc2sc3c(NC4CC4c4ccc(F)c(F)c4)ncnc3c2c1C` (centres unmarked) [Compound 119, N-[2-(3,4-difluorophenyl)cyclopropyl]-3,4-dimethyl-pyrimido [4′,5′:4,5]thieno[2,3-c] pyridazin-8-amine], under “Table 10”, the EC50 is 941 nM. Besides, under setting [1], the Emax amounted to 98.4%.

In the case of `COCCN1CCN(c2ccc(CNc3ncnc4c3sc3nnc(C)c(C)c34)cc2)CC1` [Compound 120, N-[[4-[4-(2-methoxyethyl)piperazin-1-yl]phenyl]methyl]-3,4-dimethyl-pyrimido [4′,5′:4,5]thieno[2,3-c] pyridazin-8-amine], the EC50 (Table 10) amounted to 226 nM. In addition, the Emax under setting [1] was determined as 100%.
